Reference: PubChem BioAssay (NCI)
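Exposure lasted 48 hours, with cells grown in 96-well plates and compounds tested at five concentrations. GI50 = concentration required for 50% inhibition of growth. TGI: total growth inhibition.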

What was measured:
Assay in all cases: DTP human tumour cell line panel, 48 h; in the data active = GI50 below about 0.43 µM; inactive = the rest
[1] = tested on: UO-31 renal
[2] = tested on: A498 renal
[3] = tested on: SN12C renal
[4] = tested on: HCT-15 colon
[5] = tested on: SK-MEL-5 melanoma
[6] = tested on: UACC-62 melanoma
[7] = tested on: UACC-257 melanoma
[8] = tested on: TK-10 renal
[9] = tested on: MDA-MB-231 breast
[10] = tested on: KM12 colon
[11] = tested on: RPMI-8226 leukemia
[12] = tested on: T-47D breast
[13] = tested on: K-562 leukemia
[14] = tested on: RXF 393 renal
[15] = tested on: NCI-H23 lung
[16] = tested on: SK-OV-3 ovarian
[17] = tested on: MOLT-4 leukemia
[18] = tested on: NCI-H226 lung
[19] = tested on: PC-3 prostate
[20] = tested on: HS 578T breast
[21] = tested on: HCT-116 colon
[22] = tested on: SW-620 colon
[23] = tested on: DU-145 prostate
[24] = tested on: MCF7 breast
[25] = tested on: SK-MEL-28 melanoma
[26] = tested on: SF-295 CNS
[27] = tested on: HOP-92 NSCLC
[28] = tested on: OVCAR-3 ovarian
[29] = tested on: BT-549 breast
[30] = tested on: HCC-2998 colon
[31] = tested on: EKVX NSCLC
[32] = tested on: COLO 205 colon
[33] = tested on: NCI-H522 lung
[34] = tested on: SF-539 CNS
[35] = tested on: OVCAR-4 ovarian
[36] = tested on: SR leukemia
[37] = tested on: SNB-19 CNS
[38] = tested on: HT29 colon
[39] = tested on: MALME-3M melanoma
[40] = tested on: NCI/ADR-RES ovarian
[41] = tested on: A549 NSCLC
[42] = tested on: NCI-H460 lung
[43] = tested on: CCRF-CEM leukemia
[44] = tested on: 786-0 renal
[45] = tested on: SK-MEL-2 melanoma
[46] = tested on: U251 CNS
[47] = tested on: OVCAR-8 ovarian
[48] = tested on: SF-268 CNS
[49] = tested on: IGROV1 ovarian
[50] = tested on: M14 melanoma
[51] = tested on: CAKI-1 renal
[52] = tested on: HL-60(TB) leukemia
[53] = tested on: OVCAR-5 ovarian
[54] = tested on: HOP-62 NSCLC
[55] = tested on: LOX IMVI melanoma

O=C(O)CCCn1c(SCc2c(Cl)cccc2Cl)nc2ccsc2c1=O
1620 nM: TGI [28]
10800 nM: TGI [32]
inactive: GI50 [1] 478 nM | GI50 [3] 661 nM | GI50 [7] 58700 nM | GI50 [8] 26200 nM | GI50 [9] 774 nM | GI50 [11] 489 nM | GI50 [12] 482 nM | GI50 [15] 587 nM | GI50 [16] 710 nM | GI50 [17] 440 nM | GI50 [18] 685 nM | GI50 [20] 434 nM | GI50 [21] 432 nM | GI50 [23] 479 nM | GI50 [25] 698 nM | GI50 [29] 459 nM | GI50 [30] 1850 nM | GI50 [31] 4520 nM | GI50 [35] 7990 nM | GI50 [37] 517 nM | GI50 [38] 448 nM | GI50 [41] 715 nM | GI50 [46] 529 nM | GI50 [47] 828 nM | GI50 [48] 830 nM | GI50 [49] 1350 nM | GI50 [51] 452 nM | GI50 [53] 5740 nM | GI50 [54] 819 nM | GI50 [55] 509 nM
active: GI50 [2] 311 nM | GI50 [4] 321 nM | GI50 [5] 283 nM | GI50 [6] 185 nM | GI50 [10] 321 nM | GI50 [13] 272 nM | GI50 [14] 306 nM | GI50 [19] 354 nM | GI50 [22] 407 nM | GI50 [24] 263 nM | GI50 [26] 376 nM | GI50 [27] 236 nM | GI50 [28] 206 nM | GI50 [32] 384 nM | GI50 [33] 205 nM | GI50 [34] 260 nM | GI50 [36] 316 nM | GI50 [39] 336 nM | GI50 [40] 276 nM | GI50 [42] 419 nM | GI50 [43] 377 nM | GI50 [44] 399 nM | GI50 [45] 386 nM | GI50 [50] 366 nM | GI50 [52] 284 nM
23200 nM: TGI [30]
50900 nM: TGI [9]
2780 nM: TGI [14]
57300 nM: TGI [5]
32200 nM: TGI [33]
> 100000 nM: TGI [1] | TGI [2] | TGI [3] | TGI [4] | TGI [7] | TGI [8] | TGI [10] | TGI [11] | TGI [12] | TGI [13] | TGI [15] | TGI [16] | TGI [17] | TGI [18] | TGI [19] | TGI [20] | TGI [21] | TGI [22] | TGI [23] | TGI [24] | TGI [25] | TGI [26] | TGI [27] | TGI [29] | TGI [31] | TGI [35] | TGI [36] | TGI [37] | TGI [38] | TGI [39] | TGI [40] | TGI [41] | TGI [42] | TGI [43] | TGI [45] | TGI [46] | TGI [47] | TGI [48] | TGI [49] | TGI [50] | TGI [51] | TGI [53] | TGI [54] | TGI [55]
32900 nM: TGI [44]
34200 nM: TGI [6]
943 nM: TGI [34]
12000 nM: TGI [52]
